# Tests used:
# [1] = cited from earlier work
# [2] = tested on: TAAR1; conditions: in vitro receptor binding studies; result in words; cited from earlier work
# [3] = Plasma paroxetine concentrations in the DDI study; assay type: in vivo, human (healthy subjects)
# [4] = 25 mg ulotaront + 20 mg QD paroxetine vs ulotaront alone, result in words
increase of SEP-363854 AUC∞ by coadministration of paroxetine (25 mg ulotaront + 20 mg QD paroxetine vs ulotaront alone) [%],effect of paroxetine on SEP-363854 Cmax [4],effect of paroxetine on SEP-363854 tmax [4],effect of paroxetine on SEP-363854 to ulotaront AUClast ratio [4],mean SEP-363854 to ulotaront AUClast ratio (with or without paroxetine coadministration),"AUC ([3]; human, plasma, oral, 20 mg) [ng·h/mL]","Cmax ([3]; human, plasma, oral, 20 mg) [ng/mL]","mean plasma trough concentration at steady-state ([3]; paroxetine 20 mg once daily from Day 5, Day 11) [ng/mL]",Structure (SMILES),metabolite abundance in humans ([1]; minor metabolite in humans),effective half-life for the metabolite ([1]; ref unpublished data),binding to TAAR1 [2]
32,no effect,no effect,no effect,about 0.02,–,–,–,NCC1OCCc2ccsc21 (centres unmarked) [SEP-363854],< 2 % of total,approximately 6 h,does bind to TAAR1
–,–,–,–,–,647,37.3,19.3,Fc1ccc([C@@H]2CCNC[C@H]2COc2ccc3c(c2)OCO3)cc1 [Paroxetine],–,–,–

# Source: publication PMC10684410 (Clinical Pharmacokinetics, 2023)
